Reference: US8685726B2, “Small molecules supporting pluripotent cell growth and methods thereof” (Viacyte, Inc., priority 2009, dated 2014)
Structures can show the parent of a compound that is named as a salt. Where two headings read alike, the source gives them in different places.

How the values were obtained:
hES cells [1] = test: Alkaline phosphatase staining screen of LOPAC1280 library (primary screen and secondary dose titration); format: cell-based, human; settings: secondary screen, dilution series, 48 hours with compound, AP staining, StemPro hESC SFM, 96-well, read-out: [Concentration] minimal effective concentration negatively impacting hES cell cultures
Description: FIG. 1. Representation of antagonists/modulators of neurotransmitter/hormone receptors identified by compound screening in hES cells. […] Receptor antagonists identified in the primary screen are shown (left column). The screen was performed using compounds at 10 μM. The secondary dose titration assay is shown (50-0.1 μM columns), and receptor class targeted by each compound and action is indicated.
Applying this approach in 96- and 384-well plates, quantitative and statistically significant cell-counting data was generated confirming the effect of AG825, an inhibitor of ERBB2 signaling, on self-renewal. About 3×10^4 hES cells per well were plated on MATRIGEL™ in StemPro® hESC SFM in 96-well plates and cultured for about 24 hours. The media was then changed, with new media containing 10 μM of a compound from the LOPAC1280 library (partial list in Table 1), and the cultures incubated for an additional 48 hours. The cultures were then fixed and stained for endogenous alkaline phosphatase, a marker of undifferentiated hES cells, activity.
The LOPAC1280 collection (Sigma Cat# LO1280), a library of small organic molecules with well-characterized pharmacological activities, was screened using the above described alkaline phosphatase detection assay in 96-well plates (16 plates total). Each 96-well assay was performed with 80 compounds (1 compound per well) and 16 wells as DMSO carrier negative controls. Greater than about 50 compounds were identified in the primary screen as impacting hES cell growth & expansion, which was then further determined to be a group of 38 molecules (Table 1) after secondary screening, and when known generally cytotoxic molecules were excluded (for example, 5-Azacytidine). Pathways that are likely to be impacted by these molecules, and therefore possibly important in hES cells, included those involving signalling by NFκB, eNOS, RAR(a), calcium channels, tachykinin signaling, guanylyl cyclase, Src and Jak2.
Secondary screening was performed using the same assay, but with a dilution series of 0.1-50 μM of a compound as compared to the 10 μM initially used. The minimal effective concentration for each compound is indicated (Table 1). […] While a role for GABA signaling in hES cell self-renewal has been highlighted previously (Ludwig et al., 2006), it has not been examined under other defined media conditions. Potential roles for other neurotransmitters in undifferentiated pluripotent stem cells have not been characterized.

hES cells [2] = test: Low-density real-time cell index monitoring (RT-CES impedance reader); format: cell-based, human; settings: 1000 cells/well; for survival/proliferation compared to DMSO controls: StemPro hESC SFM HIA, low-density impedance assay
Description: FIG. 4. Titration of NE and ACh using the RT-CES impedance reader. 1000 hES cells/well were plated in StemPro® hESC SFM containing the indicated concentrations of small molecules (in μM). In such an assay, the timing of when the cell index rises is associated with the proportion of cells that survive and expand at low density.
FIG. 5. Combined effects of small molecules compound combinations in low cell density assays. (A) 1000 hES cells/well were plated in StemPro® hESC SFM containing small molecules at 50 μM (NE, ACh, Adenosine, GABA) or 10 μM (Y27632). The assay was carried out over 5 days using the RT-CES system.
FIG. 6. […] 1000 hES cells/well were plated in StemPro® hESC SFM containing Heregulin, IGF1 and Activin (HIA) and the indicated small molecules. […] Compounds were tested at 10 μM. The DMSO trace is an average of 8 wells. […] Compounds were tested at the indicated concentrations.
FIG. 7. […] 1000 hES cells/well were plated in StemPro® hESC SFM containing the indicated combinations of growth factors and small molecules. Heregulin (H), LR3-IGF1 (I), Activin (A).
FIG. 9. Low-density RT-CES assays of combinations of growth factors and neurotransmitters. 1000 hES cells/well were plated in StemPro® hESC SFM containing the indicated combinations of growth factors and small molecules. Heregulin (H), LR3-IGF1 (I), Activin (A). Small molecules were tested at 50 μM.
Furthermore, pluripotent cells can also be grown in 96-well culture devices that provide real-time measurements of impedance, which can be used to measure cell proliferation and viability using the RT-CES™ methods from ACEA Biosciences, Inc. (www (dot) aceabio (dot) com). Such an approach would enable a label-free identification and quantification of subtle or immediate effects on differentiable cells, as well as measurements of proliferation, apoptosis and changes to morphology, in real time.
To examine more closely the potency of individual neurotransmitters and determine if synergies exist between different factors, low-density assays were performed in real time using an impedance reader. The ACEA biosciences RT-CES system uses 96-well trays that contain embedded microsensors to monitor changes in electrical impedance, which is translated into a measure of cell index. Any overt alteration within a cell culture can be detected, including but not limited to cell proliferation, migration, cell spreading, apoptosis, differentiation and the like. […] Once an undifferentiated culture becomes confluent the cell index remains high, but tends to go down and up (scallop) between daily feedings. Conversely, differentiation is typically indicated by the appearance of distinctive patterns, such as peaks and troughs in the cell index, likely indicative of an epithelial-to-mesenchymal transition, flattening, cell migration, apoptosis or similar differentiation and growth related changes.
Human ES cells were plated at low density, 1000 cells/well, in RT-CES trays and cultured for 10 days (FIG. 4). Cells were plated directly in StemPro® hESC SFM containing carrier control (DMSO), NE, or ACh.

Compound | minimal effective concentration (hES cells [1]) | minimal effective concentration (hES cells [1]; Homo sapiens) | further results
COc1cc2c(cc1O)CC[C@@H]1[C@@H]2CC[C@]2(C)[C@@H](O)CC[C@@H]12 [2-methoxyestradiol] | 10 µM | – | –
Oc1cc(-c2ccccc2)nc2nc(Cl)ccc12 [7-Chloro-4-hydroxy-2-phenyl-1,8-naphthyridine] | – | 5 µM | –
CC[n+]1c(/C=C/C=C2/N(C)c3ccccc3C2(C)C)sc2ccccc21.[I-] [AC-93253 iodide] | 5 µM | – | –
N.S=C(S)N1CCCC1 [Ammonium pyrrolidinedithiocarbamate] | 10 µM | – | –
C[C@H]1CCC/C=C/[C@@H]2C[C@H](O)C[C@H]2[C@H](O)/C=C/C(=O)O1 [Brefeldin A] | <0.1 µM | – | –
O=C(/C=C/c1ccc(O)c(O)c1)OCCc1ccccc1 [Caffeic acid phenethyl ester] | – | < 0.1 µM | –
CNc1ccc2oc(C[C@H]3O[C@@]4(CC[C@H]3C)O[C@H]([C@H](C)C(=O)c3ccc[nH]3)[C@H](C)C[C@H]4C)nc2c1C(=O)O [Calcimycin] | – | 1 µM | –
Clc1ccc(C(c2ccc(Cl)cc2)n2cc[n+](CC(OCc3ccc(Cl)cc3Cl)c3ccc(Cl)cc3Cl)c2)cc1 (stereo not shown) [Calmidazolium chloride] | – | 5 µM | –
Oc1cc2c(cc1O)CN(C(=S)NCCc1ccc(Cl)cc1)CCC2 [Capsazepine] | – | 5 µM | –
Cc1cc(N)c2ccccc2[n+]1CCCCCCCCCC[n+]1c(C)cc(N)c2ccccc21 [Dequalinium chloride hydrate] | – | 5 µM | –
C[C@@H]1O[C@@H](O[C@H]2C[C@@H](O)[C@]3(CO)[C@H]4[C@H](O)C[C@]5(C)[C@@H]([C@@H]6COC(=O)C6)CC[C@]5(O)[C@@H]4CC[C@]3(O)C2)[C@H](O)[C@H](O)[C@H]1O [Dihydroouabain] | 1 µM | – | –
c1ccc2c(c1)[I+]c1ccccc1-2 [Diphenyleneiodonium chloride] | – | 0.1 µM | –
O=c1[nH]c2ccccc2n1CCCN1CCC(n2c(=O)[nH]c3cc(Cl)ccc32)CC1 [Domperidone] | – | 25 µM | –
NCCCC(=O)O [GABA] | – | – | survival and expansion at low density, single factors and two-factor combinations (hES cells [2]; 50 μM (NE, ACh, Adenosine, GABA) or 10 μM (Y27632), 5 days): less effective; time after plating at which cell index rises above background / expansion detectable (hES cells [2]; 50 μM each factor, StemPro hESC SFM): ~4.5 days; survival/proliferation compared to DMSO controls (hES cells [2]): lack of robust activity
COc1cc(CC(=O)O)ccc1O [HVA, homovanillic acid] | – | – | survival/proliferation compared to DMSO controls (hES cells [2]): enhanced survival/proliferation
CNC(=O)[C@H]1O[C@@H](n2cnc3c(NCc4cccc(I)c4)ncnc32)[C@H](O)[C@@H]1O [IB-MECA] | 50 µM | – | –
Ic1ccccc1CNC1C2CCN(CC2)C1C(c1ccccc1)c1ccccc1.O=C(O)C(=O)O [L-703,606 oxalate] | 25 µM | – | –
COC(=O)C1=C(C)NC(C)=C(C(=O)OC(C)(C)CN(C)CCC(c2ccccc2)c2ccccc2)C1c1cccc([N+](=O)[O-])c1 (stereo not shown) [Lercanidipine hydrochloride hemihydrate] | – | 10 µM | –
CC[N+](CC)(CC)CCOc1ccc(/C=C/c2ccccc2)cc1 [MG 624] | – | 0.1 µM | –
COCC(=O)O[C@]1(CCN(C)CCCc2nc3ccccc3[nH]2)CCc2cc(F)ccc2[C@@H]1C(C)C [Mibefradil dihydrochloride] | – | 25 µM | –
CCCCCCCC/C=C\CCCCCCCC(=O)NCCc1ccc(O)c(O)c1 [N-Oleoyldopamine] | – | 5 µM | –

Compound | minimal effective concentration (hES cells [1]) | minimal effective concentration (hES cells [1]; Homo sapiens) | further results
CC(C)[C@H]1c2ccc(F)cc2CC[C@@]1(CCN(C)CCCc1nc2ccccc2[nH]1)OC(=O)C1CC1 [NNC 55-0396] | 25 µM | – | –
CC(Cc1ccc(O)c(O)c1)C(C)Cc1ccc(O)c(O)c1 (stereo not shown) [Nordihydroguaiaretic acid] | – | 5 µM | –
C[C@@H]1O[C@@H](O[C@H]2C[C@@H](O)[C@]3(CO)[C@H]4[C@H](O)C[C@]5(C)[C@@H](C6=CC(=O)OC6)CC[C@]5(O)[C@@H]4CC[C@]3(O)C2)[C@H](O)[C@H](O)[C@H]1O [Ouabain] | – | < 0.1 µM | –
Nc1ccc(CCN2CCN(c3cccc(C(F)(F)F)c3)CC2)cc1 [PAPP] | 25 µM | – | –
N=C(N)c1ccc(OCCCCCOc2ccc(C(=N)N)cc2)cc1 [Pentamidine isethionate] | – | 1 µM | –
COc1cc([C@@H]2c3cc4c(cc3[C@H](O)[C@H]3COC(=O)[C@H]23)OCO4)cc(OC)c1OC [Podophyllotoxin] | – | < 0.1 µM | –
C=CC1=C(C)c2cc3[nH]c(cc4nc(cc5[nH]c(cc1n2)c(C)c5CCC(=O)O)C(CCC(=O)O)=C4C)c(C)c3C=C [Protoporphyrin IX disodium] | – | 10 µM | –
CCN(CC)CCCC(C)Nc1c2ccc(Cl)cc2nc2ccc(OC)cc12 (stereo not shown) [Quinacrine dihydrochloride] | – | 10 µM | –
CC1=C(/C=C/C(C)=C/C=C/C(C)=C/C(=O)Nc2ccc(O)cc2)C(C)(C)CCC1 [Retinoic acid p-hydroxyanilide] | 1 µM | – | –
Cc1nc(-c2ccc(-c3ccc(C(=O)N4CCc5cc6c(cc54)C4(CCN(C)CC4)CO6)cc3)c(C)c2)no1 [SB 224289 hydrochloride] | – | 25 µM | –
COc1ccc(CCCOC(Cn2ccnc2)c2ccc(OC)cc2)cc1 (stereo not shown) [SKF 96365] | – | 25 µM | –
CN(C)S(=O)(=O)c1ccc2c(c1)/C(=C/c1cc3c([nH]1)CCCC3)C(=O)N2 [SU 6656] | – | 25 µM | –
CC(C)(C)c1ccc(C(O)CCCN2CCC(C(O)(c3ccccc3)c3ccccc3)CC2)cc1 (stereo not shown) [Terfenadine] | – | 25 µM | –
C/C=C(/C)C(=O)O[C@H]1C(C)=C2[C@H]([C@@H]1OC(=O)CCCCCCC)[C@@](C)(OC(C)=O)C[C@H](OC(=O)CCC)[C@@]1(O)[C@H]2OC(=O)[C@@]1(C)O [Thapsigargin] | – | < 0.1 µM | –
N#C/C(=C\c1ccc(O)c(O)c1)C(=O)NCc1ccccc1 [Tyrphostin AG 490] | 25 µM | – | –
CC1(C)CCC2=C(O1)c1ccccc1C(=O)C2=O [beta-Lapachone] | – | 5 µM | –
NCCc1ccc(O)c(O)c1 [dopamine] | – | – | survival/proliferation compared to DMSO controls (hES cells [2]): enhanced survival/proliferation
NCCc1c[nH]c2ccc(O)cc12 [serotonin] | – | – | survival/proliferation compared to DMSO controls (hES cells [2]): enhanced survival/proliferation
Ivermectin | 5 µM | – | –
Vinblastine sulfate salt | <0.1 µM | – | –
